Measured values as given in patent US20190183893A1 (Guangzhou Dawnlight Biotech Company, priority 2016, published 2019).
Entries after “also recorded” stand apart in the source; their conditions may differ. Structures can show the parent of a compound that is named as a salt. Where two headings read alike, the source gives them in different places.

Legend:
[1] = system: transplanted tumor in mice; format: in vivo, mouse; conditions: for effect on the antineoplastic activity of low dose sildenafil: 2 mg/kg/day with sildenafil citrate 10 or 20 mg/kg/day; for tumor inhibition rate: 2 weeks; for toxicity / adverse reactions of the mice during the experimental period: citrate
[2] = system: transplanted tumor of prostate cancer; conditions: cited from earlier work
[3] = sildenafil concentration in the blood after oral intake by an adult patient; format: in vivo, human; conditions: low oral doses (2-10 mg), estimated
From the text: (§1) The antitneoplastic mechanism of sildenafil at low doses is not yet clear.
(§2) The antitneoplastic mechanism of low dose sildenafil is not yet clear.

malignant tumors = assay: general statement on low dose sildenafil: tumor growth inhibition in vivo and tolerability; conditions: low dose: daily oral 0.04˜0.5 mg per 1 kg, injection 0.04˜0.2 mg per 1 kg or topical less than 1%; for toxicity or side effects: citrate
From the text: It can be used to achieve effective control of tumor growth and improve the treatment of tumors.

[4] = system: human hepatocellular carcinoma cell line (HEPG2); conditions: 2 μM, citrate; cited from earlier work
cultured tumor cells [5] = assay: growth of cultured tumor cells; format: cell-based; conditions: 200 μM; citrate
From the text: as §1, §2

cultured tumor cells [6] = assay: production of reactive oxygen species (ROS) in cultured tumor cells; format: cell-based; conditions: 300 μM; citrate
From the text: as §1, §2

[7] = system: transplanted tumor derived from liver cancer; conditions: mouth-fed, combined with Stivarga (regorafenib); cited from earlier work

With `CN(C)CCC(c1ccc(Cl)cc1)c1ccccn1` (stereo not drawn) [chlorphenamine maleate] the “effect on the antineoplastic activity of low dose sildenafil” value [1] was “directly counteract the antineoplastic activity” and the “effect on the antineoplastic activity of low dose sildenafil” value ([1]; listed as chlorphenamine malate) was “significantly counteracted the antineoplastic activity”.
In the case of `CCCc1nn(C)c2c(=O)[nH]c(-c3cc(S(=O)(=O)N4CCN(C)CC4)ccc3OCC)nc12.O=C(O)CC(O)(CC(=O)O)C(=O)O` [sildenafil, 1-[[3-(6,7-Dihydro-1-methyl-7-oxo-3-propyl-1H-pyrazolo[4,3-d]pyrimidin-5-yl)-4-ethoxyphenyl]sulfonyl]-4-methylpiperazine citrate], the “antineoplastic effect used alone” value ([2]; alone at normal doses (25-100 mg), versus control group) is listed as “not significant”, the “growth of transplanted tumor of prostate cancer” value ([2]; intraperitoneal injection, combined with Adriamycin (Doxorubicin)) is listed as “significantly inhibit the growth” and the “drug concentration in the blood” value [3] is listed as “lower than 0.1 μM”. The “inhibition rate of tumor growth” value (malignant tumors) was “more than 50%”, the “toxicity or side effects” value (malignant tumors) was “does not produce significant toxicity or side effects” and the “toxicity or side effects” value (malignant tumors; listed as Sildenafil citrate) was “without significant toxic side effects”. The “toxicity or side effects” value (malignant tumors; listed as sildenafil citrate) was “without significant toxic side effects”, the “expression of IkB nitro-tyrosine and apoptotic gene ligand Fas-L” value [4] was “stimulate the expression” and the tumor inhibition rate ([1]; 10 mg/kg/day, combined with chlorphenamine maleate 2 mg/kg/day) was 16%. The tumor inhibition rate ([1]; 20 mg/kg/day, combined with chlorphenamine maleate 2 mg/kg/day) was 7%, the “inhibitory effect on growth of the transplanted tumor” value ([1]; 50 mg/kg/day) was “no obvious inhibitory effects” and the tumor inhibition rate ([1]; gavage 10 mg/kg/day, alone) was 63%. The “tumor growth inhibition rate” value ([1]; gavage 10 mg/kg/day, 36 days, dissolved in 25% ethanol) was 68%, the “toxicity / adverse reactions of the mice during the experimental period” value ([1]; gavage 10 mg/kg/day, 36 days, 10 mg/kg/day) was “no significant or observable toxicity reactions” and the “toxicity / adverse reactions of the mice during the experimental period” value ([1]; gavage 10 mg/kg/day, 36 days, listed as sildenafil citrate, 10 mg/kg/day) was “no significant or observable adverse reactions”. For the same compound, the tumor inhibition rate ([1]; gavage 20 mg/kg/day, alone) was 50%, the “effect on the growth of cultured tumor cells” value (cultured tumor cells [5]) was “direct inhibitory effect; also recorded: directly inhibited the growth” and the “production of reactive oxygen species (ROS)” value (cultured tumor cells [6]) was “induced production of reactive oxygen species (ROS); also recorded: induce the production of reactive oxygen species (ROS)”. For the same compound, the “growth of transplanted tumor derived from liver cancer” value [7] was “significantly inhibit the growth”.
